Among the data in publication PMC8286840, “Identifying SARS-CoV-2 antiviral compounds by screening for small molecule inhibitors of Nsp3 papain-like protease” (Biochemical Journal, 2021) are remaining activity values, retold here.

For experiment [1], the target named is T1, SARS-CoV-2 PLpro (nsp3 1564–1878) (Severe acute respiratory syndrome coronavirus 2, UniProt P0DTD1). As to the kind of experiment: biochemical. Also on record: FRET-quenched peptide (Pro3) cleavage by PLpro, 10 min pre-incubation, slope over 20 min, normalised to no-compound control. The following applies: low concentration screen, read-out: % of control remaining.

Experiment [2] deals with T1, SARS-CoV-2 PLpro (nsp3 1564–1878). The experiment is described as follows: biochemical. The settings on record: high concentration screen, read-out: % of control remaining. More on the design: FRET-quenched peptide (Pro3) cleavage by PLpro, 10 min pre-incubation, slope over 20 min, normalised to no-compound control.

Each structure is given as a SMILES string. Counter-ions that a name gives are not always drawn. Like-named read-outs stand apart in the source and are kept apart here.

In the case of `O=C(O)c1cc(O)ccc1O` [Gentisic acid], the remaining activity at 1.25 µM in experiment [1] (Well no.=3955) turned out to be 110%. Besides, in experiment [2] (Well no.=3955), the remaining activity at 3.75 µM worked out at 100%.

Regarding `CCCCCCCCCCCCCCCCCCc1ccc(C(=O)/C=C/C(=O)O)cc1` [(2E)-4-(4-octadecylphenyl)-4-oxo-2-butenoic acid], the remaining activity at 1.25 µM in experiment [1] (Well no.=5554) came to 97.9%. In experiment [2] (Well no.=5554), the remaining activity at 3.75 µM worked out at 99.3%.

For the compound `O=C1NCN(c2ccccc2)C12CCN(CC1COc3ccccc3O1)CC2` (centres unmarked) [Spiroxatrine], the remaining activity at 1.25 µM in experiment [1] (Well no.=1277) came out at 99.7%. Moreover, the remaining activity at 3.75 µM in experiment [2] (Well no.=1277) is 102%.

On to `CC(CCC(=O)O)CC(=O)O` (centres unmarked) [3-Methyladipic acid], for which, in experiment [1] (Well no.=6533), the remaining activity at 1.25 µM came out at 107%. Also, the remaining activity at 3.75 µM in experiment [2] (Well no.=6533) turned out to be 98.2%.

In the case of `O=C(O)CCCCC1CCSS1` (racemic), in experiment [1] (Well no.=1195), the remaining activity at 1.25 µM was 102%. For the same compound, the remaining activity at 3.75 µM in experiment [2] (Well no.=1195) came to 101%.

In the case of `NC(=O)Nc1sc(-c2ccccc2)cc1C(N)=O` [IKK-2 Inhibitor VI], the remaining activity at 1.25 µM in experiment [1] (Well no.=2437) was found to be 107%. Moreover, the remaining activity at 3.75 µM in experiment [2] (Well no.=2437) was 106%.

Turning to `Cc1ccc2c(c1)C1(CCN(CCc3nc(-c4ccccc4)oc3C)CC1)OC(=O)N2` [6-methyl-1'-(2-(5-methyl-2-phenyloxazol-4-yl)ethyl)spiro[benzo[d][1,3]oxazine-4,4'-piperidin]-2(1H)-one], the remaining activity at 1.25 µM in experiment [1] (Well no.=5915) was determined as 93.5%. Further, the remaining activity at 3.75 µM in experiment [2] (Well no.=5915) was 93.6%.

In the case of `C[C@@H](O)[C@H](N)c1nnc([C@H](CCC(N)=O)NC(=O)N[C@@H](CO)C(=O)O)o1` [PD-1-IN-17], the remaining activity at 1.25 µM in experiment [1] (Well no.=8741) is 102%. In experiment [2] (Well no.=8741), the remaining activity at 3.75 µM amounted to 106%.

For the compound `Cc1cccc(Nc2ccccc2C(=O)O)c1C` [Mefenamic acid], in experiment [1] (Well no.=1951), the remaining activity at 1.25 µM was 97.7%. Besides, the remaining activity at 3.75 µM in experiment [2] (Well no.=1951) came out at 99.7%.

As to `CC(C)C[C@@H](C(=O)O)c1cc(-c2ccc(C(F)(F)F)cc2)cc(-c2ccc(C(F)(F)F)cc2)c1` [(R)-2-(4,4''-bis(trifluoromethyl)-[1,1':3',1''-terphenyl]-5'-yl)-4-methylpentanoic acid], in experiment [1] (Well no.=5455), the remaining activity at 1.25 µM was 99.6%. Further, the remaining activity at 3.75 µM in experiment [2] (Well no.=5455) was found to be 106%.

With `CCN(CC)CCCC(C)Nc1nc(C)cc(Nc2ccc3nc(C)cc(N)c3c2)n1` (centres unmarked) [NSC 23766], the remaining activity at 1.25 µM in experiment [1] (Well no.=4798) was found to be 103%. Further, in experiment [2] (Well no.=4798), the remaining activity at 3.75 µM is 101%.

As for `CC(C)(Cc1ccc2ccccc2c1)NC[C@@H](O)COc1cccc(Cl)c1C#N` [NPS-2143], the remaining activity at 1.25 µM in experiment [1] (Well no.=7036) came to 96.4%. Also, the remaining activity at 3.75 µM in experiment [2] (Well no.=7036) was 93.8%.

Take `COc1ccc(CCN(C)CCCC(C#N)(c2cc(OC)c(OC)c(OC)c2)C(C)C)cc1OC` (racemic): the remaining activity at 1.25 µM in experiment [1] (Well no.=1026) amounted to 94.4%. The remaining activity at 3.75 µM in experiment [2] (Well no.=1026) amounted to 98.1%.

Regarding `CCC(=O)Nc1ccc2ncnc(Nc3cccc(Br)c3)c2c1` [PD 174265], the remaining activity at 1.25 µM in experiment [1] (Well no.=2501) came to 101%. For the same compound, the remaining activity at 3.75 µM in experiment [2] (Well no.=2501) is 98.5%.

As for `NS(=O)(=O)c1cccc2c1c([N+](=O)[O-])cc1nc(O)c(O)nc12` [NBQX disodium], in experiment [1] (Well no.=942), the remaining activity at 1.25 µM amounted to 101%. Moreover, the remaining activity at 3.75 µM in experiment [2] (Well no.=942) came out at 98%.

`CC[C@H]1[C@@H]2C[C@H]3[C@@H]4N(C)c5ccccc5[C@]45C[C@@H]([C@H]2[C@H]5O)N3[C@@H]1O` [Ajmaline]: the remaining activity at 1.25 µM in experiment [1] (Well no.=3437) came out at 98.9%. The remaining activity at 3.75 µM in experiment [2] (Well no.=3437) worked out at 98.2%.

In the case of `O=C(Nc1cccc(Nc2ncc(Br)c(NCCc3cnc[nH]3)n2)c1)N1CCCC1` [BX912], the remaining activity at 1.25 µM in experiment [1] (Well no.=2979) stood at 95.2%. Also, the remaining activity at 3.75 µM in experiment [2] (Well no.=2979) amounted to 93.8%.

For the compound `C=C1CC[C@H](O)C/C1=C/C=C1\CCC[C@]2(C)[C@@H]([C@H](C)CCCC(C)(C)O)CC[C@@H]12` [Calcifediol], the remaining activity at 1.25 µM in experiment [1] (Well no.=1821) was found to be 90.8%. The remaining activity at 3.75 µM in experiment [2] (Well no.=1821) worked out at 93.1%.

Turning to `COc1ccc(COc2cc3oc(=O)c4cc(C(C)O)ccc4c3cc2OC)cc1` (centres unmarked) [Palomid 529], the remaining activity at 1.25 µM in experiment [1] (Well no.=4860) was 102%. The remaining activity at 3.75 µM in experiment [2] (Well no.=4860) is 98.2%.

Regarding `C[N+](C)(C)CCO` [2-hydroxy-N,N,N-trimethylethanaminium chloride], the remaining activity at 1.25 µM in experiment [1] (Well no.=5483) was 98.3%. For the same compound, in experiment [2] (Well no.=5483), the remaining activity at 3.75 µM is 97.8%.

Take `O=C(NCCO)c1cccc(-c2cc(Nc3ccc(OC(F)(F)F)cc3)ncn2)c1` [GNF-5]: the remaining activity at 1.25 µM in experiment [1] (Well no.=5861) worked out at 105%. The remaining activity at 3.75 µM in experiment [2] (Well no.=5861) was found to be 98.1%.

Take `CC[C@H](c1ccc(O)cc1)[C@@H](CC)c1ccc(O)cc1` [Hexestrol]: the remaining activity at 1.25 µM in experiment [1] (Well no.=2182) turned out to be 99.9%. Further, the remaining activity at 3.75 µM in experiment [2] (Well no.=2182) was 100%.

For the compound `CC(C)=CCC[C@](C)(O[C@@H]1O[C@H](CO[C@@H]2O[C@@H](CO)[C@H](O)[C@H]2O)[C@@H](O)[C@H](O)[C@H]1O)[C@H]1CC[C@]2(C)[C@@H]1[C@H](O)C[C@@H]1[C@@]3(C)CC[C@H](O[C@@H]4O[C@H](CO)[C@@H](O)[C@H](O)[C@H]4O[C@@H]4O[C@H](CO)[C@@H](O)[C@H](O)[C@H]4O)C(C)(C)[C@@H]3CC[C@]12C` [Ginsenoside Rc], the remaining activity at 1.25 µM in experiment [1] (Well no.=6436) worked out at 93.3%. Besides, in experiment [2] (Well no.=6436), the remaining activity at 3.75 µM is 92.6%.

Turning to `Cc1nc(-c2ccc(-c3ccc(C(=O)N4CCc5cc6c(cc54)C4(CCN(C)CC4)CO6)cc3)c(C)c2)no1` [SB 224289 hydrochloride], in experiment [1] (Well no.=1423), the remaining activity at 1.25 µM was 96.6%. Moreover, in experiment [2] (Well no.=1423), the remaining activity at 3.75 µM amounted to 97.3%.

Regarding `CCN1C[C@]2(COC)CC[C@H](O)[C@]34C1C(C[C@H]23)[C@@]1(O)C[C@H](OC)[C@H]2C[C@@H]4[C@@H]1[C@H]2OC(C)=O` [Condelphine], the remaining activity at 1.25 µM in experiment [1] (Well no.=3107) came out at 93.3%. The remaining activity at 3.75 µM in experiment [2] (Well no.=3107) was found to be 92.8%.

With `C[N+](C)(C)CC(O)CC(=O)[O-]` (racemic), the remaining activity at 1.25 µM in experiment [1] (Well no.=3402) turned out to be 88.4%. Also, the remaining activity at 3.75 µM in experiment [2] (Well no.=3402) is 86.6%.

Turning to `Nc1ccn([C@@H]2O[C@H](CO)[C@@H](O)C2(F)F)c(=O)n1` [Gemcitabine], the remaining activity at 1.25 µM in experiment [1] (Well no.=1906) came out at 97.8%; in experiment [1] (Well no.=8054) it was 92.7%. The remaining activity at 3.75 µM in experiment [2] (Well no.=1906) turned out to be 98.5%; in experiment [2] (Well no.=8054) it was 95%.

For `CC(C)c1nc(CN(C)C(=O)N[C@H](C(=O)N[C@@H](Cc2ccccc2)C[C@H](O)[C@H](Cc2ccccc2)NC(=O)OCc2cncs2)C(C)C)cs1` [Ritonavir], the remaining activity at 1.25 µM in experiment [1] (Well no.=4721) worked out at 102%. The remaining activity at 3.75 µM in experiment [2] (Well no.=4721) was 102%.

Consider `NC(=O)C1CCCc2c1[nH]c1ccc(Cl)cc21` (centres unmarked) [EX 527], for which the remaining activity at 1.25 µM in experiment [1] (Well no.=5287) came out at 99%. In addition, in experiment [2] (Well no.=5287), the remaining activity at 3.75 µM turned out to be 97.8%.

As to `COCCCC/C(=N\OCCN)c1ccc(C(F)(F)F)cc1` [Fluvoxamine maleate], the remaining activity at 1.25 µM in experiment [1] (Well no.=467) came to 95.7%. Besides, the remaining activity at 3.75 µM in experiment [2] (Well no.=467) was determined as 96.4%.
